Experiments:
[1] = tested on: human breast tumor MDA-MB-231 cells; experiment: Wound-healing assay, serum-induced migration of MDA-MB-231 cells; type: cell-based; details: 20 μM
Description: (§1) Cells. Mouse 4T1 mammary tumor cells and human MDA-MB-231 breast tumor cells were obtained from ATCC and have been described previously (Shan et al. 2005, Yang et al. 2005). 4T1 cells were cultured in RPMI 1640 medium supplemented with 10% FBS. MDA-MB-231 cells were cultured in DMEM supplemented with 10% FBS. Wound-healing assay. The wound-healing assay involves observing whether confluent cells can migrate across a scrape or wound in the cell layer. Cell migration assays were performed as described previously (Yang et al. 2005, Shan et al 2006). Tumor cells were plated in a 24-well plate coated with gelatin in standard media. After the cells grew to confluence, wounds were made in the confluent layer of cell using a sterile instrument such as a sterile pipette tip. The cells were washed with Phosphate Buffered Saline (PBS) or other sterile solutions and then the migration was induced by adding medium supplemented with 10% FBS. When the wound for the positive control closed, cells were fixed with 3.7% formaldehyde and stained with crystal violet staining solution. […] Photographs several random regions of the filter facing the second chamber are taken and the number of cells counted to calculate the average number of cells that had transmigrated.

[2] = tested on: human breast tumor MDA-MB 231 cells; experiment: Cell migration assay, MDA-MB-231 cells; type: cell-based
Description: as §1, with “media.” for “media. After the cells grew to confluence, wounds were made in the confluent layer of cell using a sterile instrument such as a sterile pipette tip. The cells were washed with Phosphate Buffered Saline (PBS) or other sterile solutions and then the migration was induced by adding medium supplemented with 10% FBS. When the wound for the positive control closed, cells were fixed with 3.7% formaldehyde and stained with crystal violet staining solution.”
Boyden Chamber Cell Migration Assay. […] Three randomly selected fields (10× objectives) on the lower side of the insert were photographed, and the migrated cells were counted. The migration was expressed as either the average number of migrated cells in a field or as percentage of migrated cells in positive control. Percentage was calculated with the formula P=100×(M−Mnc)/Mpc, where P is the percentage of migrated cells, M is the number of migrated cells, Mnc is the number of migrated cells in negative controls, and Mpc is the number of migrated cells in positive controls.

[3] = target: fascin (Homo sapiens, UniProt Q16658); experiment: GST-fascin and biotin-macroketone interaction; type: binding; design: made in house; host or cells: Escherichia coli BL21; details: excess unlabeled compound
Description: Whole cell lysates from 4T1 mouse breast tumor cells were made. After preclearing the cell lysate with immobilized neutravidin biotin binding protein (Pierce, IL, USA) to remove biotin and avidin-binding proteins, the cell lysates were loaded to a column packed with the biotin-labeled macroketone (conjugated to neutravidin beads). A control column packed with free biotin and neutravidin beads was run side-by-side. After washing the column with 10 bed volumes of lysis buffer with 300 mM NaCl, the bound proteins were eluted with 0.1 M Glycine-HCl at pH 2.8 according to the manufacturer's instruction. […] Protein Expression and Purification. Recombinant GST-fascin fusion protein was produced in BL21 Escherichia coli. A 1-liter culture was grown to an A600 reading of 1.0 and then induced by addition of 0.3 mM isopropyl 1-thio-D-galactopyranoside (IPTG) for 12 hours at 25° C. Cells were flash frozen and then lysed by sonication in Tris-buffered saline. The supernatant was then incubated with glutathione-Sepharose for 2 h at 4° C. After extensive washing, GST-fascin was eluted and concentrated with a Centricon Plus-20 (Millipore). To remove the GST tag from the fusion protein, beads were incubated with thrombin overnight at 4° C. The supernatant was collected and concentrated. GST-fascin and Biotin-macroketone Interaction. […] Proteins associated with biotin-macroketone were precipitated with Untralink-immobilized NeutrAvidin agarose (Pierce). After extensive washing, bound proteins were eluted with SDS sample buffer and resolved by 10% SDS-PAGE. F-Actin Bundling Assay. Actin bundling activity was measured by low speed centrifugation assay and fluorescence microscopy. In low-speed centrifugation assay, monomeric rabbit G-actin was induced to polymerize at room temperature in F-actin buffer (20 mM Tris-HCl at pH 8, 1 mM ATP, 1 mM DTT, 2 mM MgCl2 and 100 mM KCl). Recombinant fascin proteins or control buffer were subsequently incubated with F-actin for 60 min at room temperature and centrifuged for 30 min at 10,000 g in an Eppendorf 5415D table-top centrifuge.

For COC1C=CCCCCC(=O)CCC(C)=CC(C)C1O (stereo not shown) [macroketone, Migrastatin ketone], the “inhibition of serum-induced migration (wound-healing)” value [1] was “inhibited the migration”, the inhibition of migration [2] was “inhibited the migration” and the “competition of binding of biotin-conjugated macroketone to fascin” value [3] was “efficiently competed”. The “competition of binding of biotin-conjugated macroketone to fascin” value ([3]; listed as unlabeled macroketone) was “decreased the binding”.
